By pEC50 is commonly meant the negative decadic logarithm of the EC50, by convention in mol/L. A low value points to a high EC50.

Consider 21 compounds from patent publication US20230391760A1, “HETEROCYCLIC GLP-1 AGONISTS” (Gasherbrum Bio, Inc., priority 2020, published 2023).

SMILES strings stand for the structures. pEC50: −log10 of the molar value.

Chain of GLP-1 Receptor (P43220 24-463, species assumed): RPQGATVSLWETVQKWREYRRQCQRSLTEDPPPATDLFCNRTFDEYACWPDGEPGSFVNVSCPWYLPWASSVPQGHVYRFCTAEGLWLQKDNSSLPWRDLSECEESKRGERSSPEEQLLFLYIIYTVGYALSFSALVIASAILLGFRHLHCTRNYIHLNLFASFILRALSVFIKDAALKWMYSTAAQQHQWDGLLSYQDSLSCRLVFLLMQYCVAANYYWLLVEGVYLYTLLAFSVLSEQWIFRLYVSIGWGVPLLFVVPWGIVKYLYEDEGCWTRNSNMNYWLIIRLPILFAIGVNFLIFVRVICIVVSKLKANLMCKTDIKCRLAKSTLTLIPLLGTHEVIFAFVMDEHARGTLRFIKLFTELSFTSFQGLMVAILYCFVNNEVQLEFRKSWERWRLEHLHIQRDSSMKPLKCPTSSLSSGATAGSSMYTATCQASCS

In this test the target is GLP-1 Receptor (Homo sapiens, UniProt P43220). Kind of test: GLP-1R agonist cAMP stimulation assay (HEK293/GLP1R/CRE-LUC cells, cAMP dynamic 2 Kit). In kind it is cell-based. The conditions noted are these: HEK293/CRE-Luc cell line stably expressing the GLP-1 Receptor, 30 min at 37° C. In short, it runs like this:
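HEK293 cells stably expressing human GLP-1R with CRE-luciferase, 1000 cells/well in DPBS with 0.5 mM IBMX and 0.1% BSA, treated with compound in 1/2-log serial dilution for 30 min at 37 °C. cAMP then detected by HTRF (cAMP-d2 plus anti-cAMP cryptate), 1 h at room temperature in the dark.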
`CC1(c2ccc(Cl)cc2F)Oc2cccc(C3CCN(Cc4nc5cc(-c6nnc(C(F)(F)F)[nH]6)c(F)cc5n4C[C@@H]4CCO4)CC3)c2O1` (stereo partly drawn) [Compound 248a, 2-({4-[2-(4-chloro-2-fluorophenyl)-2-methyl-2H-1,3-benzodioxol-4-yl]piperidin-1-yl}methyl)-6-fluoro-1-{[(2S)-oxetan-2-yl]methyl}-5-[5-(trifluoromethyl)-4H-1,2,4-triazol-3-yl]-1H-1,3-benzodiazole] showed a pEC50 of 9.96. The value for `CC1(c2ccc(C#N)cc2F)Oc2cccc(C3CCN(Cc4nc5cc(-c6nnc(C(F)(F)F)[nH]6)nnc5n4C[C@@H]4CCO4)CC3)c2O1` (stereo partly drawn) [Compound 273a, 3-fluoro-4-(2-methyl-4-{1-[(7-{[(2S)-oxetan-2-yl]methyl}-3-[5-(trifluoromethyl)-4H-1,2,4-triazol-3-yl]-7H-imidazo[4,5-c]pyridazin-6-yl)methyl]piperidin-4-yl}-2H-1,3-benzodioxol-2-yl)benzonitrile] was 10.72; that for `N#Cc1nnc(-c2cc3nc(CN4CCC(c5cccc(OCc6ccc(Cl)cc6F)n5)CC4)n(C[C@@H]4CCO4)c3cn2)[nH]1` [Compound 484a, 5-{2-[(4-{6-[(4-chloro-2-fluorophenyl)methoxy]pyridin-2-yl}piperidin-1-yl)methyl]-3-{[(2S)-oxetan-2-yl]methyl}-3H-imidazo[4,5-c]pyridin-6-yl}-4H-1,2,4-triazole-3-carbonitrile] was 11.20.

Consider `Fc1cc(Cl)ccc1COc1ccc(F)c(N2CCN(Cc3nc4cc(-c5nnc(C(F)(F)F)[nH]5)cnc4n3C[C@@H]3CCO3)CC2)n1` [Compound 513a, 1-{6-[(4-chloro-2-fluorophenyl)methoxy]-3-fluoropyridin-2-yl}-4-[(3-{[(2S)-oxetan-2-yl]methyl}-6-[5-(trifluoromethyl)-4H-1,2,4-triazol-3-yl]-3H-imidazo[4,5-b]pyridin-2-yl)methyl]piperazine], for which the pEC50 was 10.19. Then `CO[C@H](C)Cn1c(CN2CCC(c3cccc4c3O[C@@](C)(c3ccc(Cl)cn3)O4)CC2)nc2cc(-c3noc(=O)[nH]3)ncc21` [Compound 466a, 3-[2-({4-[(2S)-2-(5-chloropyridin-2-yl)-2-methyl-2H-1,3-benzodioxol-4-yl]piperidin-1-yl}methyl)-3-[(2R)-2-methoxypropyl]-3H-imidazo[4,5-c]pyridin-6-yl]-4,5-dihydro-1,2,4-oxadiazol-5-one], with 9.72. Then `C[C@]1(c2ccc(Cl)cn2)Oc2cccc(C3CCN(Cc4nc5cc(-c6n[nH]c(C(F)(F)F)n6)cnc5n4C[C@@H]4CCO4)CC3)c2O1` (single isomer, unassigned) [Compound 333c], with 9.02. Then `CC1(c2ccc(Cl)cc2F)Oc2cccc(C3CCN(Cc4nc5cc(-c6nnc(S(C)(=O)=O)[nH]6)ccc5n4C[C@@H]4CCO4)CC3)c2O1` (stereo partly drawn) [Compound 253a, 2-({4-[2-(4-chloro-2-fluorophenyl)-2-methyl-2H-1,3-benzodioxol-4-yl]piperidin-1-yl}methyl)-5-(5-methanesulfonyl-4H-1,2,4-triazol-3-yl)-1-{[(2S)-oxetan-2-yl]methyl}-1H-1,3-benzodiazole], with 9.19; and `Fc1cc(Cl)ccc1COc1cccc(C2CCN(Cc3nc4cc(-c5nnc(C(F)(F)F)[nH]5)nnc4n3C[C@@H]3CCO3)CC2)n1` [Compound 486a, 2-[(4-chloro-2-fluorophenyl)methoxy]-6-{1-[(7-{[(2S)-oxetan-2-yl]methyl}-3-[5-(trifluoromethyl)-4H-1,2,4-triazol-3-yl]-7H-imidazo[4,5-c]pyridazin-6-yl)methyl]piperidin-4-yl}pyridine], with 10.42; and `C[C@H]1CN(c2nc(OCc3ccc(Cl)cc3F)ccc2F)CCN1Cc1nc2cc(-c3nnc(C(F)(F)F)[nH]3)nnc2n1C[C@@H]1CCO1` [Compound 514a, (2S)-4-{6-[(4-chloro-2-fluorophenyl)methoxy]-3-fluoropyridin-2-yl}-2-methyl-1-[(7-{[(2S)-oxetan-2-yl]methyl}-3-[5-(trifluoromethyl)-4H-1,2,4-triazol-3-yl]-7H-imidazo[4,5-c]pyridazin-6-yl)methyl]piperazine], with 10.15. On to `CO[C@H](C)Cn1c(CN2CCC(c3cccc4c3O[C@@](C)(c3ccc(Cl)cc3F)O4)CC2)nc2cc(-c3nnc(C(F)(F)F)[nH]3)ncc21` [Compound 418a, 4-[(2S)-2-(4-chloro-2-fluorophenyl)-2-methyl-2H-1,3-benzodioxol-4-yl]-1-({3-[(2R)-2-methoxypropyl]-6-[5-(trifluoromethyl)-4H-1,2,4-triazol-3-yl]-3H-imidazo[4,5-c]pyridin-2-yl}methyl)piperidine], for which the pEC50 was 10.02.

As for `CO[C@@H](C)Cn1c(CN2CCC(c3cccc4c3O[C@@](C)(c3ccc(Cl)cc3F)O4)CC2)nc2cc(-c3nnc(C(F)(F)F)[nH]3)ncc21` [Compound 420a, 4-[(2S)-2-(4-chloro-2-fluorophenyl)-2-methyl-2H-1,3-benzodioxol-4-yl]-1-({3-[(2S)-2-methoxypropyl]-6-[5-(trifluoromethyl)-4H-1,2,4-triazol-3-yl]-3H-imidazo[4,5-c]pyridin-2-yl}methyl)piperidine], the pEC50 was 9.68. This pEC50 lies 0.34 log units lower than the previous one. Then `Fc1cc(Cl)ccc1COc1cccc(C2CCN(Cc3nc4cc(-n5cc(C6CCCOC6)nn5)ccc4n3C[C@@H]3CCO3)CC2)n1` (stereo partly drawn) [Compound 211a, 2-[(4-{6-[(4-chloro-2-fluorophenyl)methoxy]pyridin-2-yl}piperidin-1-yl)methyl]-5-[4-(oxan-3-yl)-1H-1,2,3-triazol-1-yl]-1-{[(2S)-oxetan-2-yl]methyl}-1H-1,3-benzodiazole], with 8.44. Then `O=C(O)Cc1ccc2c(c1)nc(CN1CCC(c3cccc(OCc4ccc(Cl)cc4F)n3)CC1)n2C[C@@H]1CCO1` [Compound 110a, (S)-2-(2-((4-(6-((4-chloro-2-fluorobenzyl)oxy)pyridin-2-yl)piperidin-1-yl)methyl)-1-(oxetan-2-ylmethyl)-1H-benzo[d]imidazol-5-yl)acetic acid], with 7.80. The value for `CC1(c2ccc(Cl)cc2)Oc2cccc(C3=CCN(Cc4nc5cc(-c6nnc(C(F)(F)F)[nH]6)ccc5n4CC4(C#N)CC4)CC3)c2O1` (stereo not drawn) [Compound 413, 1-{[2-({4-[2-(4-chlorophenyl)-2-methyl-2H-1,3-benzodioxol-4-yl]-1,2,3,6-tetrahydropyridin-1-yl}methyl)-5-[5-(trifluoromethyl)-4H-1,2,4-triazol-3-yl]-1H-1,3-benzodiazol-1-yl]methyl}cyclopropane-1-carbonitrile] was 9.22; that for `COC1(C(=O)Nc2ccc3c(c2)nc(CN2CCC(c4cccc(OCc5ccc(Cl)cc5F)n4)CC2)n3C[C@@H]2CCO2)CCCOC1` (stereo partly drawn) [Compound 196a, N-{2-[(4-{6-[(4-chloro-2-fluorophenyl)methoxy]pyridin-2-yl}piperidin-1-yl)methyl]-1-{[(2S)-oxetan-2-yl]methyl}-1H-1,3-benzodiazol-5-yl}-3-methoxyoxane-3-carboxamide] was 8.96; that for `CC1(c2ccc(Cl)cn2)Oc2cccc(C3CCN(Cc4nc5cc(-c6noc(=O)[nH]6)cnc5n4C[C@@H]4CCO4)CC3)c2O1` (stereo partly drawn) [Compound 332a, 3-[2-({4-[2-(5-chloropyridin-2-yl)-2-methyl-2H-1,3-benzodioxol-4-yl]piperidin-1-yl}methyl)-3-{[(2S)-oxetan-2-yl]methyl}-3H-imidazo[4,5-b]pyridin-6-yl]-4,5-dihydro-1,2,4-oxadiazol-5-one] was 8.80. For `Fc1cc(Cl)ccc1COc1cc(C2CCN(Cc3nc4cc(-c5nnc(C(F)(F)F)[nH]5)ncc4n3C[C@@H]3CCO3)CC2F)ccc1F` (stereo partly drawn) [Compound 478a, (3,4-trans)-4-{3-[(4-chloro-2-fluorophenyl)methoxy]-4-fluorophenyl}-3-fluoro-1-[(3-{[(2S)-oxetan-2-yl]methyl}-6-[5-(trifluoromethyl)-4H-1,2,4-triazol-3-yl]-3H-imidazo[4,5-c]pyridin-2-yl)methyl]piperidine], the negative-log EC50 (pEC50) is 10.00. The value for `CC1(c2ccc(Cl)cn2)Oc2cccc(C3CCN(Cc4nc5cc(-c6nnc(C7CC7)[nH]6)cnc5n4C[C@@H]4CCO4)CC3)c2O1` (stereo partly drawn) [Compound 268a, 5-chloro-2-[4-(1-{[6-(5-cyclopropyl-4H-1,2,4-triazol-3-yl)-3-{[(2S)-oxetan-2-yl]methyl}-3H-imidazo[4,5-b]pyridin-2-yl]methyl}piperidin-4-yl)-2-methyl-2H-1,3-benzodioxol-2-yl]pyridine] was 8.38. Then `Cc1nnc(-c2cnc3c(c2)nc(CN2CCC(c4cccc5c4OC(C)(c4ccc(Cl)cn4)O5)CC2)n3C[C@@H]2CCO2)[nH]1` (stereo partly drawn) [Compound 269a, 5-chloro-2-[2-methyl-4-(1-{[6-(5-methyl-4H-1,2,4-triazol-3-yl)-3-{[(2S)-oxetan-2-yl]methyl}-3H-imidazo[4,5-b]pyridin-2-yl]methyl}piperidin-4-yl)-2H-1,3-benzodioxol-2-yl]pyridine], with 8.70; and `CC1(c2ccc(C#N)cc2)Oc2cccc(C3CCN(Cc4nc5cc(-c6nnc(C(F)(F)F)[nH]6)ccc5n4C[C@@H]4CCO4)CC3)c2O1` (stereo partly drawn) [Compound 260a, 4-(2-methyl-4-{1-[(1-{[(2S)-oxetan-2-yl]methyl}-5-[5-(trifluoromethyl)-4H-1,2,4-triazol-3-yl]-1H-1,3-benzodiazol-2-yl)methyl]piperidin-4-yl}-2H-1,3-benzodioxol-2-yl)benzonitrile], with 10.51; and `O=C(Nc1ccc2c(c1)nc(CN1CCC(c3cccc(OCc4ccc(Cl)cc4F)n3)CC1)n2C[C@@H]1CCO1)C1COC1` [Compound 104a, (S)—N-(2-((4-(6-((4-chloro-2-fluorobenzyl)oxy)pyridin-2-yl)piperidin-1-yl)methyl)-1-(oxetan-2-ylmethyl)-1H-benzo[d]imidazol-5-yl)oxetane-3-carboxamide], with 9.68.
